Assay results taken from the Biogen ADME set (Fang et al. 2023).
Values after ≈ are worked out from the molar mass of the structure shown.

Details: for aqueous solubility: pH 6.8

SMILES	MDR1-MDCK efflux ratio	aqueous solubility [µg/mL]	intrinsic clearance, human liver microsomes [mL/min/kg]	intrinsic clearance, rat liver microsomes [mL/min/kg]	fraction unbound, human plasma	fraction unbound, rat plasma
N#Cc1cc2c(nc1SCc1cccnc1)CCCCCC2	0.913	0.22 (≈ 0.711 µM)	–	–	–	–
OC(CNCc1ccc(OCc2cccs2)cc1)c1ccccc1 (configuration not stated)	–	42.9 (≈ 126 µM)	–	–	–	–
Cc1ccc(C)c(NC(=O)CN2CCCN(c3ccc(C(F)(F)F)cn3)CC2)c1	0.959	11.9 (≈ 29.4 µM)	447	1940	–	–
CCCn1ncc2ccc(C3CCCN(CC(=O)N4CCCC4)C3)nc21 (configuration not stated)	6.7	49.4 (≈ 139 µM)	27.6	289	–	–
Cc1cccnc1NC(=O)CCn1cnc2ccccc21	15.9	48.1 (≈ 172 µM)	≤ 4.74	≤ 10.7	–	–
Nc1cnn(CC(=O)Nc2ccc(F)cc2)c1	–	54 (≈ 231 µM)	16.1	62.4	–	–
O=C(Nc1nc2ccccc2[nH]1)c1cccnc1	–	0.2 (≈ 0.839 µM)	–	–	–	–
N#CC1(CN2CCc3cc(-c4ccccc4)oc3C2)CC1	0.273	30.3 (≈ 109 µM)	72.7	503	–	–
CS(=O)(=O)N1CCc2c(cccc2NC(=O)c2ccc(F)cc2)C1	6.4	0.37 (≈ 1.06 µM)	–	–	–	–
CCc1cc2c(cc1N1CCC(N3CCOCC3)CC1)C(C)(C)c1[nH]c3cc(C#N)ccc3c1C2=O	11.8	11.7 (≈ 24.2 µM)	35.8	17.8	–	–
O=C(CCc1cccs1)Nc1ccc(N2CCCC2)cn1	–	1.18 (≈ 3.91 µM)	–	–	–	–
O=c1c2c(Cl)ccc(Cl)c2ncn1Cc1cc(O)ncn1	–	–	≤ 4.74	≤ 10.7	–	–
CN(CCc1ccncc1)c1ncccc1C#N	0.743	–	44.3	552	–	–
O=C(CSc1ccccn1)N1CCSc2ccccc21	0.586	–	426	6400	–	–
Cc1nc2ccccc2n1Cc1ccc(C(=O)O)cc1	2.75	35.4 (≈ 133 µM)	≤ 4.74	≤ 10.7	–	–
CC(C)(C)c1ccc(-c2nc3n(c(=O)c2C#N)CCS3)cc1	–	2.5 (≈ 8.03 µM)	8.57	191	0.0539	0.0286
CCN(c1ccccc1)S(=O)(=O)c1ccc(C(=O)Nc2ccccc2C(C)=O)cc1	1.18	0.45 (≈ 1.07 µM)	–	–	–	–
O=C(CSC1CCCC1)NCCn1nc2c(cc1=O)CCCC2	9.14	60.8 (≈ 181 µM)	71	1180	–	–
CC(C(=O)N1CCc2sccc2C1)N1CCCN(c2ccccc2C#N)CC1 (configuration not stated)	0.871	25.6 (≈ 64.9 µM)	2130	4230	–	–
COc1cc(OC)c2c(=O)cc(CCC(=O)O)oc2c1	–	–	≤ 4.74	≤ 10.7	–	–
Fc1cccc2c1CN(Cc1c[nH]nc1-c1cccnc1)CC2	–	–	92.9	1240	–	–
CC1CCN(C(=O)CCn2ccc3ccncc32)CC1	1.98	–	119	1960	–	–

SMILES	MDR1-MDCK efflux ratio	aqueous solubility [µg/mL]	intrinsic clearance, human liver microsomes [mL/min/kg]	intrinsic clearance, rat liver microsomes [mL/min/kg]	fraction unbound, human plasma	fraction unbound, rat plasma
CCC(C)(C)c1ccc(Oc2ccc(NC(=O)CSc3cccc[n+]3[O-])cc2)cc1	2.2	0.45 (≈ 1.06 µM)	–	–	–	–
CC1CCC(O)(CSc2nncn2C(C)C)CC1 (configuration not stated)	0.85	–	6.42	214	–	–
Cc1cc(Nc2ccccn2)cc(C2CCCN(CC(=O)Nc3ncc(C)s3)C2)n1 (configuration not stated)	36.3	65.5 (≈ 155 µM)	59.6	956	–	–
CC(C)NS(=O)(=O)c1ccc2c(c1)oc(=O)c1cc(S(=O)(=O)NC(C)C)ccc12	–	0.47 (≈ 1.07 µM)	–	–	–	–
CC(C)c1ccc(-c2cc3c(=O)n(CCC(=O)NCCN(C)C)ccn3n2)cc1	86.7	55.7 (≈ 141 µM)	182	142	–	–
Cc1ccc(CCNc2ccc(C#N)nc2)cn1	0.552	–	≤ 4.74	45.1	–	–
CCS(=O)(=O)N1CCN(c2ccc(Nc3ncc(C(N)=O)c(NC4CC4)n3)cc2)CC1	39.4	–	9.73	36.3	–	–
OCCOc1ccccc1OCc1ncc(Cl)cc1Cl	0.551	–	48.5	319	–	–
N#CCCN(c1ncnc2sccc12)C1CC1	0.714	39.8 (≈ 163 µM)	11	231	–	–
COc1cccc(N(C)CCC(=O)N2CCC(c3ccc(-c4ccc(N)nc4)cn3)CC2)c1	6.73	47 (≈ 106 µM)	821	1770	–	–
Cc1ccccc1CCNC(=O)N(Cc1cccnc1)C1CCN(C)CC1	55.7	–	20.4	815	–	–
O=C(Nc1ccccc1-c1cn2c(CN3CCNCC3)csc2n1)c1cnc2ccccc2n1	–	1.49 (≈ 3.17 µM)	9.54	19.2	–	–
NC1(c2nc(-c3ccsc3)no2)CCCCC1	–	–	≤ 4.74	447	–	–
CCN1C(=O)C(C)(C)COc2cc(NS(=O)(=O)c3cc(C)c(C)cc3OC)ccc21	–	–	445	9320	–	–
CCCC(=O)Nc1ccc(C)c2ncccc12	0.743	50.2 (≈ 220 µM)	8.73	28.1	–	–
CC(=O)Nc1cnn(CC2CCN(C)CC2)c1	3.56	23.5 (≈ 99.4 µM)	≤ 4.74	≤ 10.7	–	–
COc1ccc(CN2CC(c3ccncc3)C2)cc1Cn1cccn1	6.36	–	10.8	397	–	–
C=CC[C@]1(O)CC[C@H]2[C@@H]3CCC4=CC(=O)CCC4=C3C=C[C@@]21C	0.761	–	58.2	592	–	–
COCC(C)(C)C(=O)N1CCCC2(CCNCC2)CC1	4.31	–	≤ 4.74	≤ 10.7	–	–
OCC1CN(c2nc3cc(F)ccc3o2)C1	0.704	–	≤ 4.74	17.2	–	–
CC(=O)N1CCCN(Cc2c(C)nn(C)c2Cl)CC1	3.19	41.1 (≈ 144 µM)	11.6	43.7	–	–
CCOCC(=O)Nc1cccc(CN2CCCC2)c1	2.31	–	15	501	–	–
